Measurements: the supplement of paper PMC10307832

What was measured:
Experiment in all cases: relative viability (nuclei count vs DMSO), 5 days (fraction); higher = more cells survive
Afatinib + Linsitinib = compound: CN(C)C/C=C/C(=O)Nc1cc2c(Nc3ccc(F)c(Cl)c3)ncnc2cc1O[C@H]1CCOC1 [Afatinib] + C[C@]1(O)C[C@@H](c2nc(-c3ccc4ccc(-c5ccccc5)nc4c3)c3c(N)nccn32)C1 [Linsitinib] (partner 1 µM)
Procedure, shortened: (§1)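 Relative viability divides the nuclei count in treated wells by that in vehicle wells. Lung cancer cell lines were seeded in 1536-well plates, dosed by pin tool the next day, and fixed and stained after 5 days in one step with final 0.05% Triton X-100, 1% formaldehyde and 1 ug/ml Hoechst. Dosing was a single drug or a fixed anchor-drug dose plus five library-drug doses (not always all listed) in √10 steps, and values are medians of duplicate plates imaged at 4×.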

Afatinib + Crizotinib = compound: CN(C)C/C=C/C(=O)Nc1cc2c(Nc3ccc(F)c(Cl)c3)ncnc2cc1O[C@H]1CCOC1 [Afatinib] + C[C@@H](Oc1cc(-c2cnn(C3CCNCC3)c2)cnc1N)c1c(Cl)ccc(F)c1Cl [Crizotinib] (partner 1 µM)
Procedure, shortened: as §1

Afatinib + Tozasertib = compound: CN(C)C/C=C/C(=O)Nc1cc2c(Nc3ccc(F)c(Cl)c3)ncnc2cc1O[C@H]1CCOC1 [Afatinib] + Cc1cc(Nc2cc(N3CCN(C)CC3)nc(Sc3ccc(NC(=O)C4CC4)cc3)n2)n[nH]1 [Tozasertib] (partner 0.1 µM)
Procedure, shortened: as §1

Afatinib + OSI-027 = compound: CN(C)C/C=C/C(=O)Nc1cc2c(Nc3ccc(F)c(Cl)c3)ncnc2cc1O[C@H]1CCOC1 [Afatinib] + COc1cccc2cc(-c3nc([C@H]4CC[C@H](C(=O)O)CC4)n4ncnc(N)c34)[nH]c12 [OSI-027] (partner 0.5 µM)
Procedure, shortened: as §1

Cell Line | relative viability (Afatinib + Linsitinib; first compound 0.005 µM) | relative viability (Afatinib + Linsitinib; first compound 0.01581 µM) | relative viability (Afatinib + Linsitinib; first compound 0.05 µM) | relative viability (Afatinib + Linsitinib; first compound 0.1581 µM) | relative viability (Afatinib + Linsitinib; first compound 0.5 µM) | relative viability (Afatinib + Crizotinib; first compound 0.005 µM) | relative viability (Afatinib + Crizotinib; first compound 0.01581 µM) | relative viability (Afatinib + Crizotinib; first compound 0.05 µM) | relative viability (Afatinib + Crizotinib; first compound 0.1581 µM) | relative viability (Afatinib + Crizotinib; first compound 0.5 µM) | relative viability (Afatinib + Tozasertib; first compound 0.005 µM) | relative viability (Afatinib + Tozasertib; first compound 0.01581 µM) | relative viability (Afatinib + Tozasertib; first compound 0.05 µM) | relative viability (Afatinib + Tozasertib; first compound 0.1581 µM) | relative viability (Afatinib + Tozasertib; first compound 0.5 µM) | relative viability (Afatinib + OSI-027; first compound 0.005 µM) | relative viability (Afatinib + OSI-027; first compound 0.01581 µM) | relative viability (Afatinib + OSI-027; first compound 0.05 µM) | relative viability (Afatinib + OSI-027; first compound 0.1581 µM) | relative viability (Afatinib + OSI-027; first compound 0.5 µM)
NCI-H441 | 0.529 | 0.523 | 0.516 | 0.503 | 0.425 | 0.691 | 0.789 | 0.85 | 0.841 | 0.652 | 0.757 | 0.788 | 0.67 | 0.532 | 0.494 | 0.677 | 0.582 | 0.499 | 0.481 | 0.426
NCI-H1793 | 0.566 | 0.431 | 0.61 | 0.461 | 0.514 | – | – | – | – | – | 0.315 | 0.377 | 0.252 | 0.147 | 0.242 | 0.237 | 0.211 | 0.168 | 0.233 | 0.146
NCI-H23 | 0.601 | 0.628 | 0.584 | 0.523 | 0.486 | 0.516 | 0.459 | 0.612 | 0.44 | 0.639 | 0.356 | 0.366 | 0.321 | 0.391 | 0.315 | 0.585 | 0.611 | 0.54 | 0.599 | 0.47
HARA | 0.481 | 0.803 | 0.238 | 0.209 | 0.26 | 0.884 | 1.04 | 0.763 | 0.494 | 0.783 | 0.0895 | 0.0918 | 0.0646 | 0.0722 | 0.062 | 0.365 | 0.228 | 0.163 | 0.234 | 0.293
NCI-H1792 | 0.533 | 0.616 | 0.497 | 0.533 | 0.484 | 1.04 | 1.01 | 0.977 | 0.907 | 0.856 | – | – | – | – | – | 0.662 | 0.762 | 0.707 | 0.672 | 0.735
NCI-H1703 | 0.49 | – | 0.651 | 0.608 | 0.585 | 0.824 | 0.694 | 0.581 | 0.731 | 0.561 | – | – | – | – | – | – | – | – | – | –
NCI-H2342 | – | – | – | – | – | – | – | – | – | – | 0.464 | 0.545 | 0.472 | 0.421 | 0.393 | 0.669 | 0.539 | 0.546 | 0.558 | 0.485
CAL-12T | 0.732 | 0.584 | 0.65 | 0.409 | 0.399 | 1.06 | 0.629 | 0.64 | – | 0.357 | 0.315 | 0.339 | 0.311 | 0.168 | 0.189 | 0.75 | 0.456 | 0.392 | 0.307 | 0.374
NCI-H727 | 0.282 | 0.307 | 0.284 | 0.267 | 0.28 | 0.804 | 0.802 | 0.53 | 0.541 | 0.583 | 0.597 | 0.614 | 0.543 | 0.514 | 0.449 | 0.699 | 0.447 | 0.511 | 0.49 | 0.56
NCI-H2085 | 0.726 | 0.773 | 0.769 | 0.417 | 0.675 | 0.925 | 0.657 | 0.763 | 0.66 | 0.778 | 0.795 | 0.754 | 0.721 | 0.619 | 0.619 | 0.71 | 0.61 | 0.541 | 0.366 | 0.366
NCI-H1395 | 1.43 | 1.13 | 1.22 | 1.19 | 1.13 | – | – | – | – | – | 0.784 | 0.759 | 0.712 | 0.709 | 0.667 | 0.587 | 0.561 | 0.688 | 0.681 | 0.592
NCI-H1648 | – | – | – | – | – | – | – | – | – | – | 0.734 | 0.624 | 0.592 | 0.241 | 0.311 | 0.253 | 0.266 | 0.298 | 0.219 | 0.27
NCI-H460 | 0.74 | 0.713 | 0.905 | 0.866 | 0.796 | 0.878 | 0.748 | 0.885 | 0.809 | 0.875 | 0.487 | 0.511 | 0.407 | 0.269 | 0.395 | 0.716 | 0.629 | 0.676 | 0.705 | 0.666
A549 | 0.608 | 0.435 | 0.533 | 0.433 | 0.467 | 0.995 | 0.655 | 0.712 | 0.695 | 0.796 | – | – | – | – | – | – | – | – | – | –
IA-LM | 0.67 | 0.713 | 0.502 | 0.571 | 0.601 | 1.12 | 0.728 | 1.04 | 0.74 | 1.11 | – | – | – | – | – | – | – | – | – | –
EKVX | 0.702 | 0.768 | 0.421 | 0.171 | 0.134 | 0.892 | 0.708 | 0.551 | 0.268 | 0.159 | 0.379 | 0.423 | 0.31 | 0.132 | 0.169 | 0.565 | 0.509 | 0.438 | 0.149 | 0.231
ChaGo-K-1 | – | – | – | – | – | 1.27 | 1.14 | 1.17 | 1.16 | 1.17 | 0.231 | 0.239 | 0.225 | 0.215 | 0.212 | 0.625 | 0.516 | 0.515 | 0.585 | 0.469
